Source: ChEMBL document CHEMBL4507315 (2021)

Columns and labels:
[1] = biological target: Cyclin-dependent kinase-like 5 (Homo sapiens) (UniProt O76039); conditions: Compound concentration 100.0 nM
[2] = biological target: Receptor-type tyrosine-protein kinase FLT3 (Homo sapiens) (UniProt P36888); conditions: Compound concentration 100.0 nM
[3] = biological target: Serine/threonine-protein kinase TNNI3K (Homo sapiens) (UniProt Q59H18); conditions: Compound concentration 100.0 nM
[4] = biological target: Ephrin type-A receptor 3 (Homo sapiens) (UniProt P29320); conditions: Compound concentration 100.0 nM
[5] = biological target: Receptor-type tyrosine-protein kinase FLT3 (Homo sapiens) (UniProt P36888); conditions: Compound concentration 100.0 nM; remark: listed apart in the source
[6] = system: Phosphatidylinositol 4,5-bisphosphate 3-kinase catalytic subunit alpha isoform (Homo sapiens), P42336 [E542K]; conditions: Compound concentration 100.0 nM
[7] = biological target: Serine/threonine-protein kinase PRP4 homolog (Homo sapiens) (UniProt Q13523); conditions: Compound concentration 100.0 nM
[8] = biological target: Ribosomal protein S6 kinase alpha-4 (Homo sapiens) (UniProt O75676); conditions: Compound concentration 100.0 nM
[9] = biological target: Cyclin-dependent kinase-like 2 (Homo sapiens) (UniProt Q92772); conditions: Compound concentration 100.0 nM
[10] = biological target: Ephrin type-A receptor 4 (Homo sapiens) (UniProt P54764); conditions: Compound concentration 100.0 nM
[11] = biological target: Serine/threonine-protein kinase 3 (Homo sapiens) (UniProt Q13188); conditions: Compound concentration 100.0 nM
[12] = biological target: Serine/threonine-protein kinase MRCK beta (Homo sapiens) (UniProt Q9Y5S2); conditions: Compound concentration 100.0 nM
[13] = biological target: Dual specificity tyrosine-phosphorylation-regulated kinase 2 (Homo sapiens) (UniProt Q92630); conditions: Compound concentration 100.0 nM
[14] = biological target: Tyrosine-protein kinase JAK2 (Homo sapiens) (UniProt O60674); conditions: Compound concentration 100.0 nM
[15] = system: Receptor-type tyrosine-protein kinase FLT3 (Homo sapiens), P36888 [UNDEFINED MUTATION]; conditions: Compound concentration 100.0 nM
[16] = biological target: Ephrin type-A receptor 5 (Homo sapiens) (UniProt P54756); conditions: Compound concentration 100.0 nM
[17] = biological target: Wee1-like protein kinase (Homo sapiens) (UniProt P30291); conditions: Compound concentration 100.0 nM
[18] = system: Tyrosine-protein kinase ABL1 (Homo sapiens), P00519 [T315I]; conditions: Compound concentration 100.0 nM
[19] = biological target: Mitogen-activated protein kinase 6 (Homo sapiens) (UniProt Q16659); conditions: Compound concentration 100.0 nM
[20] = biological target: Mitogen-activated protein kinase 9 (Homo sapiens) (UniProt P45984); conditions: Compound concentration 100.0 nM
[21] = biological target: Sodium-dependent noradrenaline transporter (Homo sapiens) (UniProt P23975); conditions: Compound concentration 10.0 uM
[22] = system: Epidermal growth factor receptor (Homo sapiens), P00533 [UNDEFINED MUTATION]; conditions: Compound concentration 100.0 nM
[23] = biological target: Serine/threonine-protein kinase 38 (Homo sapiens) (UniProt Q15208); conditions: Compound concentration 100.0 nM
[24] = system: Leucine-rich repeat serine/threonine-protein kinase 2 (Homo sapiens), Q5S007 [G2019S]; conditions: Compound concentration 100.0 nM
[25] = biological target: Serine/threonine-protein kinase Sgk2 (Homo sapiens) (UniProt Q9HBY8); conditions: Compound concentration 100.0 nM
[26] = system: Mast/stem cell growth factor receptor Kit (Homo sapiens), P10721 [D816H]; conditions: Compound concentration 100.0 nM
[27] = system: Tyrosine-protein kinase ABL1 (Homo sapiens), P00519 [Q252H]; conditions: Compound concentration 100.0 nM
[28] = system: Epidermal growth factor receptor (Homo sapiens), P00533 [UNDEFINED MUTATION]; conditions: Compound concentration 100.0 nM; remark: listed apart in the source
[29] = system: Tyrosine-protein kinase ABL1 (Homo sapiens), P00519 [T315I]; conditions: Compound concentration 100.0 nM; remark: listed apart in the source
[30] = biological target: Dual specificity protein kinase TTK (Homo sapiens) (UniProt P33981); conditions: Compound concentration 100.0 nM
[31] = biological target: Cyclin-dependent kinase 14 (Homo sapiens) (UniProt O94921); conditions: Compound concentration 100.0 nM
[32] = biological target: Serine/threonine-protein kinase mTOR (Homo sapiens) (UniProt P42345); conditions: Compound concentration 100.0 nM
[33] = biological target: SRSF protein kinase 2 (Homo sapiens) (UniProt P78362); conditions: Compound concentration 100.0 nM
[34] = biological target: Calcium/calmodulin-dependent protein kinase type II subunit gamma (Homo sapiens) (UniProt Q13555); conditions: Compound concentration 100.0 nM
[35] = biological target: MAP kinase-interacting serine/threonine-protein kinase 1 (Homo sapiens) (UniProt Q9BUB5); conditions: Compound concentration 100.0 nM
[36] = system: Mast/stem cell growth factor receptor Kit (Homo sapiens), P10721 [L576P]; conditions: Compound concentration 100.0 nM
[37] = biological target: Tyrosine-protein kinase Blk (Homo sapiens) (UniProt P51451); conditions: Compound concentration 100.0 nM
[38] = biological target: Alpha-2B adrenergic receptor (Homo sapiens) (UniProt P18089); conditions: Compound concentration 10.0 uM
[39] = biological target: Mitogen-activated protein kinase kinase kinase 1 (Homo sapiens) (UniProt Q13233); conditions: Compound concentration 100.0 nM
[40] = biological target: Ribosomal protein S6 kinase alpha-6 (Homo sapiens) (UniProt Q9UK32); conditions: Compound concentration 100.0 nM
[41] = biological target: Tyrosine-protein kinase ITK/TSK (Homo sapiens) (UniProt Q08881); conditions: Compound concentration 100.0 nM
[42] = biological target: Macrophage colony-stimulating factor 1 receptor (Homo sapiens) (UniProt P07333); conditions: Compound concentration 100.0 nM
[43] = biological target: Mitogen-activated protein kinase kinase kinase 4 (Homo sapiens) (UniProt Q9Y6R4); conditions: Compound concentration 100.0 nM
Histamine H1 receptor = Histamine H1 receptor (Homo sapiens, UniProt P35367); conditions: Compound concentration 10.0 uM
[44] = biological target: Citron Rho-interacting kinase (Homo sapiens) (UniProt O14578); conditions: Compound concentration 100.0 nM

Receptor-type tyrosine-protein kinase FLT3 (Homo sapiens), sequence (P36888 whole entry, canonical isoform): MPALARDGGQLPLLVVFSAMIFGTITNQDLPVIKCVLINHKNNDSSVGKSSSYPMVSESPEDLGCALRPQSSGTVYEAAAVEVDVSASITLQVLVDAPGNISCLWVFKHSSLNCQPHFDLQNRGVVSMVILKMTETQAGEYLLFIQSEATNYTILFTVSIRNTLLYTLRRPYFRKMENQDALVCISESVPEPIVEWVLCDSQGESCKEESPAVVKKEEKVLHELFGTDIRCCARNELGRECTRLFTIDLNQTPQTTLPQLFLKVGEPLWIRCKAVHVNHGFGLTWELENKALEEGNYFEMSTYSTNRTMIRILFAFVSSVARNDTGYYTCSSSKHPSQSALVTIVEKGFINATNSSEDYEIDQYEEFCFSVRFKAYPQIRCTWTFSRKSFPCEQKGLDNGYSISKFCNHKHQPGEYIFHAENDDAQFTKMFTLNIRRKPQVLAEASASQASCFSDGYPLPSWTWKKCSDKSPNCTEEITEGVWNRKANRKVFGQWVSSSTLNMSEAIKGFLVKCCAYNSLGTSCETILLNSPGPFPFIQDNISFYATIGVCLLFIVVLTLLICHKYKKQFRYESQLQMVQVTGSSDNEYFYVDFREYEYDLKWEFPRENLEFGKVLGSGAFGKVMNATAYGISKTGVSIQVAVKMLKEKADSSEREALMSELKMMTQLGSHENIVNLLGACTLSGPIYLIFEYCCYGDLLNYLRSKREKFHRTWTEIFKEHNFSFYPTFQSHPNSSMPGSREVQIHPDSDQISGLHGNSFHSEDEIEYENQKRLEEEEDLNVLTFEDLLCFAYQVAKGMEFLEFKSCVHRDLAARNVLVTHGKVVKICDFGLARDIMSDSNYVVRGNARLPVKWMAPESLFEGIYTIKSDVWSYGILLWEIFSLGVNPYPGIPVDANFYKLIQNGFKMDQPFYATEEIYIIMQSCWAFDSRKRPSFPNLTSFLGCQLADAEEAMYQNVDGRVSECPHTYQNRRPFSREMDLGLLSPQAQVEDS
Epidermal growth factor receptor (Homo sapiens), P00533 [UNDEFINED MUTATION], sequence (P00533 whole entry, looked up, stated change not applied): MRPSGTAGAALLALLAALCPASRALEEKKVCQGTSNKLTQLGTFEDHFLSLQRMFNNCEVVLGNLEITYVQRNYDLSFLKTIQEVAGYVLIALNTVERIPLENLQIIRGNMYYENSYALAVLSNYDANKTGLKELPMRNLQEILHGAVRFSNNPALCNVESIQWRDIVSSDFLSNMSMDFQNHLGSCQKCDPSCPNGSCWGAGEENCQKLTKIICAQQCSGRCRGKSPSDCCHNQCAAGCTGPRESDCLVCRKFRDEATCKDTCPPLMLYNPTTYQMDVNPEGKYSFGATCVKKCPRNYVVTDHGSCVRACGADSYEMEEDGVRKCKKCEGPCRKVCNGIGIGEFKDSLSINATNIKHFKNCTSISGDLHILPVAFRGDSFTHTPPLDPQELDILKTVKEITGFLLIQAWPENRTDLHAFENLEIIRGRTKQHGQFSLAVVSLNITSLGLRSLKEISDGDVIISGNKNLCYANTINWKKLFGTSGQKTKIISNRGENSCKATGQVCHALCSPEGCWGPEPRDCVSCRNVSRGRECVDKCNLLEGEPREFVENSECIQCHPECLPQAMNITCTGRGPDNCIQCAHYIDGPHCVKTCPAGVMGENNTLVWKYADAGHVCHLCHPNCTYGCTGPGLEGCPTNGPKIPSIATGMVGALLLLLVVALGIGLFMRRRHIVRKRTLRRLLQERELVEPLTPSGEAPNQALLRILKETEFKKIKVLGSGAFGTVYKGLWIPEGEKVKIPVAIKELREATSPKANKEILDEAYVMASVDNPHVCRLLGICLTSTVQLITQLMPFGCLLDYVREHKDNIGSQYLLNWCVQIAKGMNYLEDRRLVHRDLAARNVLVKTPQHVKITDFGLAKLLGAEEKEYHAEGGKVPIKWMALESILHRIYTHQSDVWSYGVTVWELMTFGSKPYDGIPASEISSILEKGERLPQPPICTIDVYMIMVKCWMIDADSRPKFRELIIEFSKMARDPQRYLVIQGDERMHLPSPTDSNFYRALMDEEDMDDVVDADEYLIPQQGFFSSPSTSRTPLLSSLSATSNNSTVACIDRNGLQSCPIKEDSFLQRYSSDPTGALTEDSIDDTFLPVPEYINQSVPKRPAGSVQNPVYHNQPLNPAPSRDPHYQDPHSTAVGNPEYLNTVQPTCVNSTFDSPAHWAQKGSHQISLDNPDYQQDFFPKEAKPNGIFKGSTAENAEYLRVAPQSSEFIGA
Dual specificity tyrosine-phosphorylation-regulated kinase 2 (Homo sapiens), sequence (Q92630 whole entry): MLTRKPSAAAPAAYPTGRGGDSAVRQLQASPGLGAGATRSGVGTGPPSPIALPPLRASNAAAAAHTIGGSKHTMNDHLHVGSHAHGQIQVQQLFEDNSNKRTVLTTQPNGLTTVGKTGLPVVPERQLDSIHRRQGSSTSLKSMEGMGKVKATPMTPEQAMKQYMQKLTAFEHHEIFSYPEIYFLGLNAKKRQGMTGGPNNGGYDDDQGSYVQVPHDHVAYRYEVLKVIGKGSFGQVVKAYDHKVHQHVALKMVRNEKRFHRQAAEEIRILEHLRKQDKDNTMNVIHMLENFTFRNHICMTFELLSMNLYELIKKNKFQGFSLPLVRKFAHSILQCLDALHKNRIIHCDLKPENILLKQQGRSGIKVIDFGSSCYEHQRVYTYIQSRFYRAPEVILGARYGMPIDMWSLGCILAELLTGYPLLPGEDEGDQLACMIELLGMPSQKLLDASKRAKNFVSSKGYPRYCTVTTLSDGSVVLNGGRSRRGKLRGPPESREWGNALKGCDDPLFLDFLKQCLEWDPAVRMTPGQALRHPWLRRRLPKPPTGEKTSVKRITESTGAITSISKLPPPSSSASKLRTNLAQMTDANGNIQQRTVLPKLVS
Cyclin-dependent kinase 14 (Homo sapiens), sequence (O94921 whole entry): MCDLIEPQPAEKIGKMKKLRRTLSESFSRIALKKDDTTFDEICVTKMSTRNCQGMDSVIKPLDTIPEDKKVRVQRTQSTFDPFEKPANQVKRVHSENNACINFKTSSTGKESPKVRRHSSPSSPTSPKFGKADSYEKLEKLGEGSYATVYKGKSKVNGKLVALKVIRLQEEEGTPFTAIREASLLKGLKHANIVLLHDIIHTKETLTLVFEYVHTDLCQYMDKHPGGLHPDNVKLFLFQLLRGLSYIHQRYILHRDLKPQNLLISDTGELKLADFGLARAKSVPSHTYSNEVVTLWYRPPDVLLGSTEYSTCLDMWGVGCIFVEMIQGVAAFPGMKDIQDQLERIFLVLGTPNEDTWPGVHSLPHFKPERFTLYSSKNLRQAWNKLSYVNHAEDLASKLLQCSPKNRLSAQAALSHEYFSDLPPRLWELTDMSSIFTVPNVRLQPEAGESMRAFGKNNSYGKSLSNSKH
Mitogen-activated protein kinase kinase kinase 4 (Homo sapiens), sequence (Q9Y6R4 whole entry): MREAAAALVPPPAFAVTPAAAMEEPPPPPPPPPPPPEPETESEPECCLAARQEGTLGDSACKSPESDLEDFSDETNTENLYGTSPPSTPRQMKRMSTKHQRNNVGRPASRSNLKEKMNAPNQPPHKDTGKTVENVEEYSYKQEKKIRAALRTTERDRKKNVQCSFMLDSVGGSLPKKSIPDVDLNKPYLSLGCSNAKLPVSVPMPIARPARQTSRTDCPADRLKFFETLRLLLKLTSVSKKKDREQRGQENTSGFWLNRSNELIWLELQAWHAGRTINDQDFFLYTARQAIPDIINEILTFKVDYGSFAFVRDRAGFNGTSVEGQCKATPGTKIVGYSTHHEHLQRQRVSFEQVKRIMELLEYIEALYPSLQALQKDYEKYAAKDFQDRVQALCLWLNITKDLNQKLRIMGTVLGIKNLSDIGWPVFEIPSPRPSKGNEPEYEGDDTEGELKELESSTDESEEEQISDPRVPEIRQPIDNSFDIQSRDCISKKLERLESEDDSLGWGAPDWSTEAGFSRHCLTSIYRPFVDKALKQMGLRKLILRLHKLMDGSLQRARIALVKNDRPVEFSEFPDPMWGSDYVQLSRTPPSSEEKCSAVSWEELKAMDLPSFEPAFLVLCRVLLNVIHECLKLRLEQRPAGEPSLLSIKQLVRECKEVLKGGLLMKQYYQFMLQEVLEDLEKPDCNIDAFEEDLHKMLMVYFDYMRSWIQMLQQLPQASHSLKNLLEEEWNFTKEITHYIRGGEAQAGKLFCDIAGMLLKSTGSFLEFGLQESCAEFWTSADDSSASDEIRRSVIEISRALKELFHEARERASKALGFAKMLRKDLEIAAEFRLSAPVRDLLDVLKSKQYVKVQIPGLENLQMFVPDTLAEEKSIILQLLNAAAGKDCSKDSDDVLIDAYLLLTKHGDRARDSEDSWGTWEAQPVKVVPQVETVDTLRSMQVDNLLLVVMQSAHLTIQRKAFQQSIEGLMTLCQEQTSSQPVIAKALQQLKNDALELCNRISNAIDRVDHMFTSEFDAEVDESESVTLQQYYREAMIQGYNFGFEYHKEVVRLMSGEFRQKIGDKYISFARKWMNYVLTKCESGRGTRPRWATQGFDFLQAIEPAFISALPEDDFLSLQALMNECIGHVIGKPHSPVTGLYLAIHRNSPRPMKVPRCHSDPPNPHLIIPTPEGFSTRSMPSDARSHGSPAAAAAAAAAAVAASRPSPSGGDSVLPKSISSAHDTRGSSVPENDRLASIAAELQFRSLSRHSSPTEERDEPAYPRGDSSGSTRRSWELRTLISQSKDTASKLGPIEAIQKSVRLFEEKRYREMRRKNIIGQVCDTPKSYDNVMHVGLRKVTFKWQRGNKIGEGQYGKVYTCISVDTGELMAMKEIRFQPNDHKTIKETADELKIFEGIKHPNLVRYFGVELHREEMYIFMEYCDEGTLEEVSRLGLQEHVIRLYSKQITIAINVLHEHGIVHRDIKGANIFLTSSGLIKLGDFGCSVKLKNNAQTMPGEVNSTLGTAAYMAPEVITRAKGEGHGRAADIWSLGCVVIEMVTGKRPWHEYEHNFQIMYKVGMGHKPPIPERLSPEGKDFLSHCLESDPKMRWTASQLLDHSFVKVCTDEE
Receptor-type tyrosine-protein kinase FLT3 (Homo sapiens), P36888 [UNDEFINED MUTATION], sequence (P36888 whole entry, looked up, change not shown): as the sequence (P36888 whole entry, canonical isoform) above

SMILES: O=C(NCCCC1CCCCC1)c1ccc(CNC(=O)c2cnn(-c3ccccc3)c2C(F)(F)F)cc1 [SR-321]
- residual activity [1]: 100%
- residual activity [2]: 87%
- residual activity [3]: 79%
- residual activity [4]: 91%
- residual activity [5]: 100%
- residual activity [6]: 74%
- residual activity [7]: 100%
- residual activity [8]: 83%
- residual activity [9]: 100%
- residual activity [10]: 70%
- residual activity [11]: 100%
- residual activity [12]: 100%
- residual activity [13]: 100%
- residual activity [14]: 100%
- residual activity [15]: 100%
- residual activity [16]: 92%
- residual activity [17]: 97%
- residual activity [18]: 80%
- residual activity [19]: 100%
- residual activity [20]: 85%
- inhibition [21]: -1.78%
- residual activity [22]: 100%
- residual activity [23]: 93%
- residual activity [24]: 100%
- residual activity [25]: 95%
- residual activity [26]: 78%
- residual activity [27]: 100%
- residual activity [28]: 100%
- residual activity [29]: 100%
- residual activity [30]: 91%
- residual activity [31]: 100%
- residual activity [32]: 100%
- residual activity [33]: 100%
- residual activity [34]: 100%
- residual activity [35]: 98%
- residual activity [36]: 100%
- residual activity [37]: 100%
- inhibition [38]: 1.13%
- residual activity [39]: 65%
- residual activity [40]: 100%
- residual activity [41]: 100%
- residual activity [42]: 100%
- residual activity [43]: 100%
- inhibition (Histamine H1 receptor): 63%
- residual activity [44]: 86%

SMILES: Nc1c(C(=O)NCc2ccc(C(=O)NCCCC3CCCCC3)cc2)cnn1-c1ccccc1 [SR-318]
- residual activity [1]: 100%
- residual activity [2]: 90%
- residual activity [3]: 100%
- residual activity [4]: 100%
- residual activity [5]: 100%
- residual activity [6]: 100%
- residual activity [7]: 100%
- residual activity [8]: 85%
- residual activity [9]: 93%
- residual activity [10]: 100%
- residual activity [11]: 100%
- residual activity [12]: 100%
- residual activity [13]: 97%
- residual activity [14]: 100%
- residual activity [15]: 90%
- residual activity [16]: 100%
- residual activity [17]: 100%
- residual activity [18]: 100%
- residual activity [19]: 92%
- residual activity [20]: 100%
- inhibition [21]: 13.5%
- residual activity [22]: 98%
- residual activity [23]: 96%
- residual activity [24]: 100%
- residual activity [25]: 72%
- residual activity [26]: 61%
- residual activity [27]: 87%
- residual activity [28]: 84%
- residual activity [29]: 100%
- residual activity [30]: 100%
- residual activity [31]: 100%
- residual activity [32]: 100%
- residual activity [33]: 100%
- residual activity [34]: 100%
- residual activity [35]: 82%
- residual activity [36]: 73%
- residual activity [37]: 81%
- inhibition [38]: 17.7%
- residual activity [39]: 96%
- residual activity [40]: 100%
- residual activity [41]: 93%
- residual activity [42]: 100%
- residual activity [43]: 81%
- inhibition (Histamine H1 receptor): 14.7%
- residual activity [44]: 100%
